Laboratory results published in patent publication EP0906913A1, “Pteridinderivatives as NO synthase inhibitors” (Werner, Ernst, priority 1997, dated 1999).

Key:
[1] = test system: kultivierten, cytokin-stimulierten Mausfibroblasten; assay: Nitrite in supernatant of cultured cytokine-stimulated mouse fibroblasts (Griess reaction); type: cell-based, Maus; details: for inhibition at 2.5 µM / inhibition at 10 µM / inhibition at 25 µM / inhibition at 100 µM / inhibition at 250 µM: Fibroblast, read-out: Hemmung; for inhibition at 2.5 µM / inhibition at 10 µM / inhibition at 25 µM / inhibition at 100 µM / inhibition at 250 µM / Nitrit im Überstand: 96 h, Interferon-gamma, TNF-alpha, LPS stimulated
Experimental: Zum Nachweis der Wirksamkeit einer Verbindung der vorliegenden Erfindung an kultivierten Zellen wurden Mausfibroblasten nach Werner-Felmayer et al., (Ref. 9) gewonnen und in RPMI 1640 Medium (Schoeller Pharma, Wien, Österreich) mit 20% Hitze-inaktiviertem fötalem Kälberserum (Schoeller Pharma) in einer Dichte von 10^5 Zellen pro ml ausgesät und mit 50 U/ml Mäuse-Interferongamma, 100 U/ml Tumornekrose Faktor-Alpha und 1 µg/ml Lipopolysaccharid (E. coli B55:05) in Gegenwart verschiedener Konzentrationen von Hemmstoffen kultiviert. Nach 96 h im Brutschrank (100% Luftfeuchtigkeit, 37°C, 5% CO2) werden die Überstände gesammelt und mit der Griess-Reaktion auf ihren Gehalt an Nitrit, einem Abbauprodukt von NO, analysiert. Die folgende Tabelle 2 zeigt einen Vergleich von H2aminobiopterin (R1 = R3 = H, R2 = R4 = OH, R5 = CH3), H4aminobiopterin und Beispiel 72 aus DE 4418097: Tabelle 2

[2] = molecular target: T1, rekombinante, neuronale, Tetrahydrobiopterin-freie NO-Synthase (Rattus norvegicus, UniProt P29476); assay: Inhibition of recombinant neuronal tetrahydrobiopterin-free NO synthase ([3H]citrulline formation from [3H]arginine); type: biochemical; details: for NO-Synthase -Aktivität / inhibition at 0.01 µM / inhibition at 0.1 µM / inhibition at 1 µM / inhibition at 10 µM / inhibition at 100 µM / inhibition at 1000 µM: 10 µM Tetrahydrobiopterin, 10 min, 37°C; for inhibition at 0.01 µM / inhibition at 0.1 µM / inhibition at 1 µM / inhibition at 10 µM / inhibition at 100 µM / inhibition at 1000 µM: read-out: Hemmung
T1 construct: made in house
Experimental: Zum Nachweis der Wirkung der Hemmstoffe eignet sich z.B. rekombinante, neuronale, Tetrahydrobiopterin-freie NO-Synthase, welche nach der Methode von List et al. 1996 (Ref. 7) hergestellt wird. Die NO-Synthaseaktivität wird dabei in Abhängigkeit von der Zugabe des NO-Synthase-Hemmstoffes durch die Bildung von [2,3,4,5-^3H]Citrullin aus [2,3,4,5-^3H]Arginin nach der Methode von Mayer et al. (Ref. 8) bestimmt. Dazu wird in 0.1 ml folgendes Gemisch für 10 min bei 37°C inkubiert: 0.1 µg NO-Synthase, 0.1mM [2,3,4,5-^3H]-L-Arginin (ca. 60000 cpm), 0.5 mM CaCl2, 10 µg/ml Calmodulin, 0.2 mM NADPH (Nicotinamidadenindinukleotid, reduzierte Form), 10 µM Tetrahydrobiopterin, 0-1000 µM NO-Synthase-Inhibitor (z.B. H2aminobiopterin), 5 µM FAD (Flavinadenindinucleutid), 5 µM FMN (Flavinmononucleotid), und 0.2 mM CHAPS (3-[(3-cholamidopropyl)dimethyl-amonio]-1-propansulfonat). Die Reaktion wird durch Zugabe von 0.9 ml 20 mM Natriumacetatpuffer, pH = 5,5, der 1 mM L-Citrullin enthält, gestoppt. Das Gemisch wird anschließend auf Ionenaustauschersäulen, die mit dem Material DOWEX AG50W-X8 gefüllt sind, aufgetragen, und das Eluat sowie die Waschflüssigkeit (1 ml Wasser) werden aufgefangen. 7 ml Scintillationscocktail werden zugegeben und die Radioaktivität, die ein Maß für die NO-Synthaseaktivität ist, wird mit einem Szintillationszähler bestimmt. Tabelle I

| Compound | inhibition at 2.5 µM ([1]; inhibitor 2.5 µM) [%] | inhibition at 10 µM ([1]; inhibitor 10 µM) [%] | inhibition at 25 µM ([1]; inhibitor 25 µM) [%] | inhibition at 100 µM ([1]; inhibitor 100 µM) [%] | inhibition at 250 µM ([1]; inhibitor 250 µM) [%] | Nitrit im Überstand ([1]; inhibitor 2.5 µM) [µM] | Nitrit im Überstand ([1]; inhibitor 10 µM) [µM] | Nitrit im Überstand ([1]; inhibitor 25 µM) [µM] | Nitrit im Überstand ([1]; inhibitor 100 µM) [µM] | Nitrit im Überstand ([1]; inhibitor 250 µM) [µM] | NO-Synthase -Aktivität ([2]; inhibitor 0.01 µM) [nmol/mg/min] | inhibition at 0.01 µM ([2]; inhibitor 0.01 µM) [%] | NO-Synthase -Aktivität ([2]; inhibitor 0.1 µM) [nmol/mg/min] | inhibition at 0.1 µM ([2]; inhibitor 0.1 µM) [%] | NO-Synthase -Aktivität ([2]; inhibitor 1.0 µM) [nmol/mg/min] | inhibition at 1 µM ([2]; inhibitor 1.0 µM) [%] | NO-Synthase -Aktivität ([2]; inhibitor 10. µM) [nmol/mg/min] | inhibition at 10 µM ([2]; inhibitor 10. µM) [%] | NO-Synthase -Aktivität ([2]; inhibitor 100. µM) [nmol/mg/min] | inhibition at 100 µM ([2]; inhibitor 100. µM) [%] | other results |
| --- | --- | --- | --- | --- | --- | --- | --- | --- | --- | --- | --- | --- | --- | --- | --- | --- | --- | --- | --- | --- | --- |
| C[C@H](O)[C@H](O)C1=Nc2c(N)nc(N)nc2NC1 [H2aminobiopterin, 2,4-diamino-7,8-dihydro-6(L-erythro-1,2-dihydroxylpropyl) pteridin] | 35 | 78 | 99 | 100 | 100 | 6.2 | 2.1 | 0.1 | 0.0 | 0.0 | 294 | 0.3 | 283 | 4 | 242 | 18 | 110 | 64 | 48 | 83 | Wirksamkeit an kultivierten Zellen (Vergleich) ([1]; in words, compared with previously known pteridine derivatives): deutlich wirksamer; Hemmung des Enzyms (Vergleich) ([2]; in words, compared with 6R-H4aminobiopterin): in der gleichen Größenordnung; Wirksamkeit am Enzym (Vergleich) ([2]; in words, compared with Beispiel 72 of DE 4418097): wesentlich wirksamer; NO-Synthase -Aktivität ([2]; inhibitor 1000. µM): 25 nmol/mg/min; inhibition at 1000 µM ([2]; inhibitor 1000. µM): 92% |
| C[C@H](O)[C@H](O)[C@H]1CNc2nc(N)nc(N)c2N1 [H4aminobiopterin, 2,4-Diamino-5,6,7,8-tetrahydro-6R-(L-erythro-1,2 dihydroxypropyl)pteridin, reference compound] | 7 | 36 | 62 | 96 | 99 | 9.3 | 6.4 | 3.8 | 0.4 | 0.02 | 279 | 6 | 262 | 12 | 181 | 39 | 72 | 76 | 35 | 88 | NO-Synthase -Aktivität ([2]; inhibitor 1000. µM): 24 nmol/mg/min; inhibition at 1000 µM ([2]; inhibitor 1000. µM): 92% |
